Experiments:
[1] = test system: PDE IV; assay: Inhibition of PDE4 activity (method of Bauer and Schwabe, microtiter plates); type: biochemical
From the text: The activity test can be carried out, for example, according to the method of Bauer and Schwabe. For this, the method is adapted to microtiter plates (Naunyn-Schmiedeberg's Arch. Pharmacol. 1980, 311, 193-198). The PDE reaction takes place in the first step here. In a second step, the resulting 5′-nucleotide is cleaved by a 5′-nucloetidase of the snake venom of Crotalus atrox to the uncharged nucleoside. In the third step, the nucleoside is separated from the remaining charged substrate on ion-exchange columns. The columns are eluted directly into minivials, into which 2 ml of scintillator fluid are additionally added for counting, using 2 ml of 30 mM ammonium formate (pH 6.0).

## COc1cc2c(cc1OC)[C@@H]1CCCC[C@@H]1[N+]([O-])=C2c1ccc(S(C)(=O)=O)cc1 [Compound 1, (−)-cis-8,9-Dimethoxy-6-(4-methanesulfonylphenyl)-1,2,3,4,4a,10b-hexahydrophenanthridine-N-oxide]
[1]
  -log IC50: 6.09
other
  melting point: 229 to 231 °C
